Data reported in patent US4396606A, “Novel polypeptide analgesics” (Addiction Research Foundation, priority 1979, dated 1983).
Where two headings read alike, the source gives them in different places.

Experiments:
rat brain membranes = assay: radioreceptor binding assay; conditions: for IC50: 1 nM radioligand, 1 h at 23°
Protocol: The radioreceptor binding assay used well washed rat brain membranes that had been incubated for 30 min at 37° with 100 mM NaCl to remove bound endogenous ligands. Blume (1978) Proc. Natl. Acad. Sci. 75, 1713. Several radioligands (1 nM final concentration) and competing ligands were tested. Competing ligands were added to the membrane suspension in Tris buffer, pH 7.4 at 23°, and radioligand was added immediately thereafter. Assay volume was 500 μl. After incubation (1 h, 23°), the mixture was chilled, filtered, washed twice, and counted.
Washed membranes from rat brain homogenate, 1 h incubation at 23°. Data are IC50 values (nM) from complete log dose-inhibition curves for inhibition of stereospecific binding of the various radioligands. […] DADLE=D-ala^2 -D-leu^5 -enkephalin. DHM=dihydromorphine.

[1] = system: antiserum to dynorphin (1-13)-thyroglobulin conjugate; assay: dynorphin radioimmunoassay; format: binding, rabbit
Description: The subject dynorphin was used for the development of immunoassays, illustrated particularly by a radioimmunoassay. For carrying out the immunoassay, it is necessary to prepare antigens which specifically recognize the oligopeptide, in this case dynorphin. To prepare antigen conjugates, thyroglobulin was conjugated to synthetic dynorphin (1-13). The procedure for preparing the antigen conjugate, injecting the antigen conjugate into animals and isolating the antisera is described as follows.
Synthetic dynorphin (1-13) (3.25 μmoles, 5.2 mg) was dissolved in 2 ml of 100 mM sodium phosphate buffer at neutrality. To the mixture was added with agitation 10^5 cpm of ^125 I-dynorphin to serve as a tracer. After addition of the tracer, 26 mg of thyroglobulin (bovine type 1, Sigma) was added and the mixture cooled in an ice-bath after the thyroglobulin dissolved. A 1:100 dilution with cold water of glutaraldehyde (Sigma, Grade 1, 25% aqueous solution) (1 ml) was added dropwise with stirring in a cold room at 4° and agitation continued for 30 min., followed by warming to room temperature and continuing the stirring for 3 hrs.
Based on the coupling efficiency calculated from the cpm of the dialysis bag residue, after lyophilizing, sufficient of the conjugate was employed to provide 50-100 μg of coupled oligopeptide per rabbit. For six rabbits, the dry material was added to 4 ml of 0.9% NaCl, followed by 4 ml of Freund's incomplete adjuvant. The mixture was uniformly dispersed by drawing up and down in a syringe and needle for 30 mins., the mixture divided into six aliquots and approximately 10 to 12 interdermal injections made in a shaved New Zealand White X San Juan hybrid rabbit. Booster injections were made at two week intervals, with a bleeding taken 10 days after the fourth booster shot, 50 ml of blood being removed from the ear artery, allowed to clot, the serum removed and stored frozen.
In small borosilicate tubes was added 25 μl dynorphin (equimolar to Na ^125 I), 50 μl Na ^125 I, and 20 μl chloramine-T and the mixture allowed to react at room temperature for 30-45 mins. The reaction was terminated by adding 100 μl of sodium metabisulfite. After washing a Sephadex G-15 column (1.2×35 cm) with 0.25 M acetic acid and 0.1% bovine serum albumin, the reaction mixture was added and eluted with the same solvent, collecting 1 ml fractions at a rate of 0.3 ml/min, collecting a total of 50 fractions.
Antiserum: A 1:10 dilution of the antiserum in 50 mM sodium phosphate buffer, pH7.4, containing 50 mM NaCl was diluted 1:10^4 with buffer B;
Dynorphin (1-13) standard: Standards were prepared by taking 10 μl of a 10 mM stock solution in water and adding 990 μl of methanolic HCl to make a […] dynorphin solution followed by 1:100 dilutions to provide the desired series.
^125 I-dynorphin (1-13) trace: The trace stored in 0.25 M acetic acid containing 0.1% BSA was diluted to about 5,000 cpm/100 μl with buffer B.
The procedure for the assay was as follows: All solutions were in ice at the outset and all operations were carried out in ice. In a […] borosilicate glass tube was added in the following order 100 μl of dynorphin (1-13) standard or test sample in methanolic HCl; 100 μl of the antiserum dilution; and 100 μl of the trace, followed by incubation at 0°-4° for 24 hrs. Incubation was terminated with a charcoal mixture prepared by mixing 3 g Norit A, 0.3 g dextran, 15 ml horse serum and the mixture brought to 100 ml with buffer A and mixed for 10 min in a cold room before use. To each incubation tube was added 1 ml of a charcoal mixture, the mixture vortexed followed by incubation for 5 min in a cold room and then centifuged at 5000×g for 15 min in a Beckman Model J6B (4200 rpm). To a 13×100 mm borosilicate glass tube was transferred 850 μl of the supernatant and the tube counted for 5 min in a gamma counter.

mouse vas deferens = mouse vas deferens bioassay; format: cell-based; conditions: for IC50: inhibition of electrically stimulated twitch, geometric mean; for Potency in mouse vas deferens / potency in guinea pig ileum: ratio of potencies in the two bioassays
Protocol: (§1) The guinea pig ileum myenteric plexus-longitudinal muscle preparation was used as described in Kosterlitz et al, supra, and Schulz & Goldstein, supra. […] Geometric means of IC50 values from several muscle strips were obtained, with standard errors in log units. Kd values for naloxone as an antagonist were determined from the ratio of IC50 values in the presence and absence of a fixed naloxone concentration. The mouse vas deferens was used as described in Hughes at al (1975) Brit. J. Pharmacol. 53, 371. IC50 and naloxone Kd values were determined as above.
(§2) Effects of dynorphin-(1-13) in two bioassays. […] Naloxone Kd is the apparent dissociation constant of the antagonist, computed from the equation Kd =[…]/(D.R.-1), derived from the mass law for competitive antagonism, where C=concentration of naloxone (here 100 nM), and D.R.=dose ratio of agonist, the ratio of IC50 doses in the presence and absence of the antagonist. The same procedures were followed with the mouse vas deferens. IC50 values are geometric means, with standard errors in log units, number of tissue preparations in parentheses. Kd determinations were based on four tissue preparations. RX-1 is des-arg^6 -dynorphin-(1-13); RS-2 has gly^6 insertion in dynorphin-(1-13).

[2] = treatment with cyanogen bromide
[3] = system: guinea pig ileum myenteric plexus-longitudinal muscle preparation; assay: guinea pig ileum myenteric plexus-longitudinal muscle preparation bioassay; format: cell-based; conditions: for IC50: inhibition of electrically stimulated twitch, geometric mean of several muscle strips
Description: Starting material was 100 g MSH concentrate, the second oxycellulose adsorbate in commercial ACTH production from procine pituitary glands (Schally et al (1962) Endocrinology 71, 164). The initial steps, with 25 g batches, have been described in Lowney et al (1979) Life Sci. 24, 2377: extraction and back-extraction with butanol; separation from β-endorphin on Bio-Gel P6; preparative reversed-phase HPLC on C18 columns, first with a methanol gradient in trifluoroacetic acid (TFA), then with an acetonitrile gradient in Tris buffer at neutrality, followed by elution of the active material with TFA. Every step was monitored by assay on the guinea pig ileum myenteric plexus-longitudinal muscle preparation. Kosterlitz & Waterfled (1975) Ann. Rev. Pharmacol. 15, 29; Schulz & Goldstein (1973) Brit. J. Pharmacol. 48, 655.
as §1, §2

[4] = ^a = unusually shallow slope, read-out: IC50 for inhibition of stereospecific binding, radioligand 3H-DADLE
[5] = ^a = unusually shallow slope, read-out: IC50 for inhibition of stereospecific binding, radioligand 3H-DHM

C=CCN1CC[C@@]23CCCC[C@@H]2[C@@H]1Cc1ccc(O)cc13 [dextrallorphan]
effect on radioligand binding (rat brain membranes; 1 μM competing ligand): without effect

H-tyr-gly-gly-phe-leu-arg-arg-ile-arg-pro-lys-leu-lys-OH [Dynorphin-(1-13)]
B/Bo ([1]; 1 × 10^-13 moles dynorphin per assay tube): 15 | B/Bo ([1]; 1 × 10^-14 moles dynorphin per assay tube): 45 | B/Bo ([1]; 1 × 10^-15 moles dynorphin per assay tube): 85 | B/Bo ([1]; 1 × 10^-16 moles dynorphin per assay tube): 100 | B/Bo ([1]; 5 × 10^-13 moles dynorphin per assay tube): 5 | B/Bo ([1]; 5 × 10^-14 moles dynorphin per assay tube): 30 | B/Bo ([1]; 5 × 10^-15 moles dynorphin per assay tube): 75 | B/Bo ([1]; 5 × 10^-16 moles dynorphin per assay tube): 100 | IC50 (mouse vas deferens): 7.5 nM | Potency in mouse vas deferens / potency in guinea pig ileum (mouse vas deferens): 0.08 | IC50 (rat brain membranes; [4]): 43 nM | IC50 (rat brain membranes; [5]): 16 nM | resistance to treatment with cyanogen bromide [2]: relatively resistant | potency relative to leu-enkephalin ([3]; guinea pig ileum test): about 1000 x | potency relative to normorphine ([3]; guinea pig ileum test): about 350 x | potency relative to β-endorphin ([3]; guinea pig ileum test): about 30 x | IC50 [3]: 0.63 nM | persistence in the guinea pig ileum test ([3]; unlike β-endorphin): long persistence

C=CCN1CC[C@]23CCCC[C@H]2[C@H]1Cc1ccc(O)cc13 [levallorphan]
displacement of radioligand (stereospecific saturable binding) (rat brain membranes; 1 μM final concentration): about 70 % of total binding

Oc1ccc2c3c1O[C@H]1[C@@H](O)C=C[C@H]4[C@@H](C2)NCC[C@@]341 [Normorphine]
IC50 (mouse vas deferens; Mus musculus): 230 nM | IC50 (rat brain membranes; [5]): 5 nM | IC50 (rat brain membranes; with Na, read-out: IC50 for inhibition of stereospecific binding, radioligand 3H-naloxone +Na): 260 nM | IC50 (rat brain membranes; without Na, read-out: IC50 for inhibition of stereospecific binding, radioligand 3H-naloxone -Na): 21 nM | IC50 ([3]; Cavia porcellus): 120 nM

βc -endorphin [reference compound]
Potency in mouse vas deferens / potency in guinea pig ileum (mouse vas deferens): 1.5 | IC50 (rat brain membranes; [4]): 2.1 nM | IC50 (rat brain membranes; [5]): 1.8 nM | IC50 [3]: 34 nM
